Patent US20080213250A1, “Use of Eph Receptor Inhibitors for the Treatment of Neurodegenerative Diseases” (priority 2004, published 2008)

Key:
EphB2 = biological target: T1, EphB2 (Mus musculus, UniProt P54763); assay: Chemical proteomics pull-down with immobilized compound, LC-MS/MS identification; settings: maximum in any chemical proteomics experiment
T1 sequence (P54763 19-986): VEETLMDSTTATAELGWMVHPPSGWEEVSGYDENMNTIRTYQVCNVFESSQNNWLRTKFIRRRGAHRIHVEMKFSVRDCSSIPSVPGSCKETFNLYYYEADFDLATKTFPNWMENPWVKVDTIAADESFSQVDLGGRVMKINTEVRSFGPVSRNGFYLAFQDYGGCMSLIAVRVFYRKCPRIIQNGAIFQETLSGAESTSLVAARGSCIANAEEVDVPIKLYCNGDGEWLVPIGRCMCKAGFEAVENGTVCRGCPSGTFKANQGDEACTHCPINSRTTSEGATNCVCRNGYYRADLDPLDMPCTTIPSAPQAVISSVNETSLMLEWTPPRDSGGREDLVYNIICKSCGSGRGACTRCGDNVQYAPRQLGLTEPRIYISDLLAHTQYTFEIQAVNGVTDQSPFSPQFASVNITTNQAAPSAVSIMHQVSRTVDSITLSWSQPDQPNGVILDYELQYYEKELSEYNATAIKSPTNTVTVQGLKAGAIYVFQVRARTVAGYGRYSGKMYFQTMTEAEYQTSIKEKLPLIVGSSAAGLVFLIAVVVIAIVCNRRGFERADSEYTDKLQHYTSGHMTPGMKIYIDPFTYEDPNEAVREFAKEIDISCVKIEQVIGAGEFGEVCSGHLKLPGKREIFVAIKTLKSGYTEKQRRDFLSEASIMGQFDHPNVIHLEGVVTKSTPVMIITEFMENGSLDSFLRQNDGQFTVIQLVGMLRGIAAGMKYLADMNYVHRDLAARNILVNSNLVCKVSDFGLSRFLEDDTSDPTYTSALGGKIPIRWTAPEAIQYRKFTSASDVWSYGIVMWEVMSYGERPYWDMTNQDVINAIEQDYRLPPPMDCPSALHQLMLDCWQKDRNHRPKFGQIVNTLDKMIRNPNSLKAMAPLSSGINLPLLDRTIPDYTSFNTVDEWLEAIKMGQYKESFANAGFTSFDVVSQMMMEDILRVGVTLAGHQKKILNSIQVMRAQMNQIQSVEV

EphA5 = EphA5 (Mus musculus, UniProt Q60629); assay: as above; settings: maximum in any chemical proteomics experiment
EphA2 = EphA2 (Mus musculus, UniProt Q03145); assay: as above; settings: maximum in any chemical proteomics experiment
EphA6 = biological target: T2, EphA6 (Mus musculus, UniProt Q62413); assay: as above; settings: maximum in any chemical proteomics experiment
T2 sequence (Q62413 23-1035): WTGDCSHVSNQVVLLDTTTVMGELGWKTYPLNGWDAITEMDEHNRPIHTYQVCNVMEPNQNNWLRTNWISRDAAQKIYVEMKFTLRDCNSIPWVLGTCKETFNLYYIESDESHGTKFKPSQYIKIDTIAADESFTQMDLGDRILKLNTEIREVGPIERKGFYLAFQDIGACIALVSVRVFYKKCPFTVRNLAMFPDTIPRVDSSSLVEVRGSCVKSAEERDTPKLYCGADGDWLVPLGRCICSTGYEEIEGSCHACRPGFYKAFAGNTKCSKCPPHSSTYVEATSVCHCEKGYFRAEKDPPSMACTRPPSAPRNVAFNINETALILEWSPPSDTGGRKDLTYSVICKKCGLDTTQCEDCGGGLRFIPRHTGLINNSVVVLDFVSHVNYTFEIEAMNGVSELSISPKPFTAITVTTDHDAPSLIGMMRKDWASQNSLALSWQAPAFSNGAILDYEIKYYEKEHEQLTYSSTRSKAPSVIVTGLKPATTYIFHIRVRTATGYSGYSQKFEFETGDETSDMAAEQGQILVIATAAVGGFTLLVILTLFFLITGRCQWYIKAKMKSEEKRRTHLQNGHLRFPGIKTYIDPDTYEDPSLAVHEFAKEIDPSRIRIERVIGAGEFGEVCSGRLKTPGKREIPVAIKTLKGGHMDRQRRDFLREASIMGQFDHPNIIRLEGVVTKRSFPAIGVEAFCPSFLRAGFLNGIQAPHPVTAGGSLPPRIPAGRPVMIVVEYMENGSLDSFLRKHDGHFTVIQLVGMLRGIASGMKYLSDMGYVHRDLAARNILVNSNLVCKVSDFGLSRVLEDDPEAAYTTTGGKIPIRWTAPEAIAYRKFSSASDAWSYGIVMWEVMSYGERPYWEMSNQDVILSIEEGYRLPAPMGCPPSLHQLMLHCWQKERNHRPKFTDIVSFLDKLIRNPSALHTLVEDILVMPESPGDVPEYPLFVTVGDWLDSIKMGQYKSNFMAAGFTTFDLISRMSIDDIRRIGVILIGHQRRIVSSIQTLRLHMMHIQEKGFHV

TAP-tagged Eph kinases = assay: Autophosphorylation of TAP-tagged Eph kinases in-vitro; type: biochemical; settings: data not shown

EphA5, sequence (Q60629 27-876): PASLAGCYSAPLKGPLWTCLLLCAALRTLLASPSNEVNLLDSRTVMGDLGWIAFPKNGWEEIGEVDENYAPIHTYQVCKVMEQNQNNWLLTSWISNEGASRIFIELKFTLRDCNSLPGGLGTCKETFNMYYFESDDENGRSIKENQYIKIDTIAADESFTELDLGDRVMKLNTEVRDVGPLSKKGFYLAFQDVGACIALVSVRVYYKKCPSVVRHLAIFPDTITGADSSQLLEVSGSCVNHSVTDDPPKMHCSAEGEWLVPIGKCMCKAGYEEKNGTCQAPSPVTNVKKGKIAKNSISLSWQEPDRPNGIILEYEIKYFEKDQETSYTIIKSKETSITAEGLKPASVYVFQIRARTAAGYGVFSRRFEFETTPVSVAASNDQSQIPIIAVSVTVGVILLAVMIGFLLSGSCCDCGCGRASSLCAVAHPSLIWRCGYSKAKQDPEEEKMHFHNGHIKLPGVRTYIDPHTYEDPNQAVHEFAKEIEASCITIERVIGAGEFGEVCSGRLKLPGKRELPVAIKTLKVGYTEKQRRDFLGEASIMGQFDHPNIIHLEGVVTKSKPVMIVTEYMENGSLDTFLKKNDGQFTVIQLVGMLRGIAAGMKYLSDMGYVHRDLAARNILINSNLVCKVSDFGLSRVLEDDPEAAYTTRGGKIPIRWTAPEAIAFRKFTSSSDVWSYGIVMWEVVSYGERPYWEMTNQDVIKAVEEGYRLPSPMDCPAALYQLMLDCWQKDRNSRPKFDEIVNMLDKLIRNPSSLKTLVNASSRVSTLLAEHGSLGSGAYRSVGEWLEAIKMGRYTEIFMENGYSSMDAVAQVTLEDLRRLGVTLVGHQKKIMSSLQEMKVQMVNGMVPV
EphA2, sequence (Q03145 26-977): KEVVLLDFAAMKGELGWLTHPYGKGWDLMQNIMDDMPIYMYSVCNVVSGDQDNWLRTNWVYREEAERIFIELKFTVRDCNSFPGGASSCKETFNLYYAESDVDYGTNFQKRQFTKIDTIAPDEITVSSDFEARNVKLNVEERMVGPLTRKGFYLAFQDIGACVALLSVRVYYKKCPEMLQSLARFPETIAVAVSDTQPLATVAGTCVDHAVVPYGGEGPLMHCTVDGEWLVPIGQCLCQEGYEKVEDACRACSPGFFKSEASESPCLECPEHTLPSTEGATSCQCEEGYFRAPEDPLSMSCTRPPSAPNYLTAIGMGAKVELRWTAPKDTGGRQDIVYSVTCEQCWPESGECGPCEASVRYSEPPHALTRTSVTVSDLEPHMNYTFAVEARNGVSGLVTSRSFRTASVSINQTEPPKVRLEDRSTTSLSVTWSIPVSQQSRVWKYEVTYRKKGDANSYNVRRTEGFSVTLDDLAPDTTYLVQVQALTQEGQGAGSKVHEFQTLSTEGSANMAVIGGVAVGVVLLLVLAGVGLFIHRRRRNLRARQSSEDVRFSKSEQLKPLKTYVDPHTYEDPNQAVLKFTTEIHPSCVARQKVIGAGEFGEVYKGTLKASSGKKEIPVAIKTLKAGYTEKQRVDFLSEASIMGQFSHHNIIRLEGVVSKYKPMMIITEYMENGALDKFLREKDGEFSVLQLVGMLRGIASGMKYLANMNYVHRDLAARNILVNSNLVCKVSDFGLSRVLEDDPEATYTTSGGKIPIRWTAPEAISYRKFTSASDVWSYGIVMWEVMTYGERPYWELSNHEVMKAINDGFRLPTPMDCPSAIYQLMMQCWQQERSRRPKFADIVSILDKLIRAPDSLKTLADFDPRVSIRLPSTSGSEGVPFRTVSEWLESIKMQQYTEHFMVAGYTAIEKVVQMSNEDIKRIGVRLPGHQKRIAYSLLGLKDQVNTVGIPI

Row | Structure (SMILES) | maximal number of non-redundant peptides identified, EphB2 (EphB2) | maximal number of non-redundant peptides identified, EphA5 (EphA5) | maximal number of non-redundant peptides identified, EphA2 (EphA2) | maximal number of non-redundant peptides identified, EphA6 (EphA6) | inhibition of autophosphorylation of TAP-tagged Eph kinases in-vitro (TAP-tagged Eph kinases)
1 | CC(C)[C@H](CO)Nc1nc(Nc2ccc(C(=O)O)c(Cl)c2)c2ncn(C(C)C)c2n1 [Purvalanol B] | 23 | 5 | 18 | – | –
2 | CSc1cccc(Nc2ncc3cc(-c4c(Cl)cccc4Cl)c(=O)n(C)c3n2)c1 [PD173955] | 35 | 4 | – | 7 | potent inhibitors
